From a melting point compilation (Tetko et al.; mined from patent text by program, amines drawn as free bases though some values may be those of a salt) come the findings set out here.

As usually defined, the melting point is the temperature of the solid-liquid transition.

Compound `CCOC(=O)CCn1c(=O)n2cc(C)cc2c2ccccc21` came in with a melting point of 74 to 76 °C.
`N#Cc1c(N2CCN(C(=O)c3ccc(C(F)(F)F)cc3)CC2)c2ccccc2n(Cc2ccc(F)cc2)c1=O`: the melting point lay within 181 to 185 °C.
The compound `COc1cn(C)c(=O)c(N)n1` gave a melting point of 166 to 167 °C.
For the compound `Cn1c(COc2ccc(CC3SC(=O)NC3=O)cc2)nc2ccc(Oc3ccc(NC(=O)c4ccccc4)cc3)cc21` (centres undefined), the melting point lay within 200 to 204 °C.
`c1nc(SCC2CCCCC2)n[nH]1` showed a melting point of 74 to 78 °C.
`CC(C)n1c(C=O)c(-c2ccc(F)cc2)c(-c2ccc(F)cc2)c1C(=O)O` returned a melting point of 228 to 230 °C.
`CCCCOc1ccc2c(=O)c(S(C)=O)cn(C)c2c1` (centres undefined): the melting point lay in the range of 148 to 150 °C.
The same measure for `CCOc1nc(N)nc(-c2ccccc2)c1-c1ccc(=O)n(C(C)C)n1`: 188 °C; for `CC(=O)SCCC1(C)C(=O)N2CCCC(C(=O)OC(C)(C)C)N2C1=O` (centres undefined): 67 to 70 °C; for `CSC(c1ccc(Cl)cc1)c1ccc(Cl)cc1`: 56 to 57 °C.
`CC(C)n1nc(-c2c(-c3ccccc3)nn3ccc(N4CCCC4=O)cc23)ccc1=O`: the melting point fell in the range of 266 to 267 °C.
Consider `COc1cc2[nH]c(=O)nc(C)c2c(OC)c1OC`, for which the melting point lay in the range of 229 to 230 °C.
The same measure for `Cc1c(C(N)=O)c2ccccc2n2c(N(C)C)nc(-c3noc(C4CC4)n3)c12`: 190 to 192 °C.
As for `CC(C)Cn1c(=O)n(C)c(=O)c2cc(Cc3cccc4ccccc34)sc21`, the melting point is 137 to 138 °C.
Regarding `N#CCC(=O)NC(C(=O)OC1CCCCC1)c1ccccc1` (centres undefined), the melting point fell in the range of 114 to 116 °C.
The same measure for `O=C(COc1cc(-c2ccsc2)nc2ccccc12)N1CCOCC1`: 183 °C; for `CN(C)C=Cc1ccc(OC(F)(F)F)cc1[N+](=O)[O-]`: 59 °C; for `N[C@@H](Cc1ccc(C(F)(F)F)cc1)[C@H](O)c1ccncc1` (racemic): 97 to 98 °C.
On to `CC(C)OC(=O)N[C@H]1CC[C@H](CCN2CCN(c3cccc(Cl)c3Cl)CC2)CC1`, for which the melting point lay in the range of 128 to 131 °C.
The same measure for `CCn1ncc2c(NCc3ccccc3)c3ccccc3nc21`: 130 to 132 °C; for `COc1c(Br)cc(C2CC=CCC2[N+](=O)[O-])c(OC)c1OC` (centres undefined): 134 to 136 °C.
As for `Cc1oc(-c2ccccc2)nc1COc1ccc(Cn2cc(CCC(=O)O)c(-c3cccs3)n2)cc1`, the melting point lay in the range of 172 to 173 °C.
The same measure for `Cc1ccc(C(=O)CNC(=O)c2ccc(C(F)(F)F)cc2)s1`: 182 to 183 °C.
With `Cc1ccc(S(=O)(=O)N(C)SN(c2cc(C(F)(F)F)ccc2Cl)c2c([N+](=O)[O-])cc([N+](=O)[O-])cc2C(F)(F)F)cc1`, the melting point fell in the range of 142 to 144 °C.
For `CCC(=O)c1ccc(CN2C(=O)c3ccccc3C2=O)s1` the value was 104 to 106 °C.
As to `COc1ccc(-c2cnc3ncnn3c2NC2CCCC2)cc1`, the melting point came to 127 °C.
For the compound `CS(=O)(=O)c1ccc(Oc2ccc(Oc3ccccc3)cc2)nc1`, the melting point lay in the range of 136 to 138 °C.
For `CC(=O)S[C@@H]1CCO[C@@H](c2ccccc2)O1` (relative stereo), the melting point lay within 95 to 96 °C.
The same measure for `COC(=O)CN1CCC[C@H]1C(=O)N[C@@H](Cc1ccccc1)C(=O)N1CCC[C@H]1C(=O)O`: 145 to 148 °C.
The compound `CC(=O)Nc1ccc(S(=O)(=O)Nc2ccn(C3CCCC3)c(=O)n2)cc1` registered a melting point of 219 to 228 °C.
`Cc1cn2ccc(N)c(Br)c2n1` returned a melting point of 158 to 160 °C.
Turning to `CCCCCCCCCCCCCCC(=O)Nc1ccn(C2OC(CO)C(O)C2O)c(=O)n1` (centres undefined), the melting point is 142 to 145 °C.
The same measure for `Cc1[nH]c(=S)[nH]c(=O)c1Cc1cccnc1`: 328 to 331 °C; for `N#CSCC(=O)c1ccccc1`: 75 to 77 °C; for `NC(=O)/C=C/c1ccc(C(c2cc(F)ccc2F)S(=O)(=O)c2ccc(Cl)cc2)nc1` (centres undefined): 219 to 220 °C.
Take `N=c1[nH]c(=O)c2nc[nH]c2c(=O)[nH]1`: the melting point is > 220 °C.
`Cc1ccc(O)c(C)c1N(C)C` displayed a melting point of 162 to 165 °C.
`Cc1oc(-c2ccccc2)nc1COc1ccc2c(-c3ccccc3)c(COc3nn(-c4ccccc4)cc3C=O)oc2c1` displayed a melting point of 176 to 177 °C.
The same measure for `CC1=C(C(=O)OC(C)(C)C)C(c2ccccc2[N+](=O)[O-])C(C(=O)OC(C)(C)C)=C(C)N1`: 159 to 161 °C; for `COC(=O)CCCC(=O)N(CCc1c[nH]c2ccccc12)Cc1ccccc1`: 107 to 108 °C; for `C(#Cc1cccnc1)C1=CCN(Cc2c[nH]c3ncccc23)CC1`: 170 to 172 °C.
For `CN(C)CCc1cccc(OCCCNc2nc(N)nn2C)c1`, the melting point lay within 81 to 82 °C.
`Cn1c(-c2cccs2)cnc1[C@H](Cc1ccccn1)N(C=O)c1cc2cc(Cl)ccc2o1`: the melting point lay within 70 to 74 °C.
`FC(F)(F)c1cc(Cl)c(-n2cnc(C(F)(F)C(F)(F)Cl)c2)c(Cl)c1` had a melting point of 101 °C.
The same measure for `CC(C)=CC(=O)Nc1ccccc1CCN1CCN(c2nsc3ccccc23)CC1`: 52 °C; for `CCCNC(=O)C(C)Cc1ccc2c(c1)c(Cc1ccc(C(=O)NS(=O)(=O)c3ccccc3C)cc1OC)cn2CCC` (centres undefined): 95 to 113 °C.
As for `Nc1ccc(Oc2ccc(S(=O)(=O)c3ccc(Oc4ccc(N)c(O)c4)cc3)cc2)cc1O`, the melting point was 228 to 231 °C.
`CNc1nc(-c2ccccc2)c(-c2nc3ccccc3c(=O)n2-c2ccccc2Cl)s1` registered a melting point of 215 to 217 °C.
`COc1cc(C=CC(=O)c2cccc(O)c2)cc(OC)c1` yielded a melting point of 126 to 127 °C.
The same measure for `CCOC(=O)CNc1ccc2ccccc2c1`: 83 to 84 °C; for `Oc1nsc2c1CCCC2`: 157 to 158 °C.
The compound `O=C1CCCc2[nH]c3ccc(F)cc3c21` yielded a melting point of 255 to 260 °C.
In the case of `Cc1nn(C)cc1C(=O)Nc1ccccc1`, the melting point was in the range of 91 to 92 °C.
`CCCC(=CC(=O)Nc1ccccc1)OC` had a melting point of 104 °C.
Consider `O=[N+]([O-])c1cc(CN(CCN=C=S)CCN=C=S)cc(CN(CCN=C=S)CCN=C=S)c1`, for which the melting point fell in the range of 62 to 64 °C.
As to `CCC(CC)N1C(=O)CCc2c1cc(C)nc2Nc1c(C)cc(C)cc1C`, the melting point is 44 to 46 °C.
For `OC1(c2ccccn2)CCC2CCCC21` (centres undefined), the melting point is 66 to 66.5 °C.
The compound `O=C(Cl)c1ccc(C#Cc2ccccc2C(=O)Cl)cc1` returned a melting point of 79 to 85 °C.
For `CCCc1c(OCCCCCCc2cccc(O)c2O)ccc(C(=O)O)c1OC(C)=O` the value was 130 to 132 °C; for `O=S(=O)(c1ccccc1)c1ncc(Cl)cn1`, 103 °C.
In turn, `CC(O)COc1ccc(Oc2cccc(F)c2)cc1` (centres undefined) yielded a melting point of 37 to 39 °C.
`N#Cc1cnn(-c2c(Cl)cc(C(F)(F)F)cc2Cl)n1` yielded a melting point of 51 to 53 °C.
Compound `CC1=Nc2ccccc2CC(c2cccs2)N1C` (centres undefined) showed a melting point of 106 to 108 °C.
Compound `COC(=O)C(O)c1cc2c(cc1Cl)OCO2` (centres undefined) returned a melting point of 66 to 68 °C.
With `O=c1[nH]nc2c3c(cccc13)Oc1ccc(COCCP(=O)(OCc3ccccc3)OCc3ccccc3)cc1-2`, the melting point was 173 to 175 °C.
`CN1CCN(c2ncc3c(=O)c(C(=O)O)cn(Cc4ccccc4)c3n2)CC1` gave a melting point of 251 to 255 °C.
The same measure for `COC(=O)c1cc(-n2cccc2)ccc1C`: 56 to 57 °C; for `OCCCc1cn(C(c2ccccc2)(c2ccccc2)c2ccccc2)cn1`: 130 °C.
For `NC(=S)c1cccc2nnsc12`, the melting point fell in the range of 129 to 131 °C.
Take `Cc1nc(C(O)(Cn2cncn2)c2ccc(F)cc2)cs1` (centres undefined): the melting point is 120 °C.
For `Cc1nc2ccccc2n1-c1ccccc1` the value was 46 to 48 °C.
For `CC#CCOc1ccc(S(=O)(=O)CNCC(C(=O)NO)N2CCN(S(C)(=O)=O)CC2)cc1` (centres undefined) the value was 86 °C; for `CCC(Oc1ccccc1)c1nnc(NC(=O)N(C)CC(OC)OC)s1` (centres undefined), 84 to 85 °C; for `CC(C)[C@H](NC(=O)N(C)Cc1cccnc1)C(=O)N[C@@H](Cc1ccccc1)C[C@H](O)[C@H](Cc1ccccc1)NC(=O)[C@@H](NC(=O)N(C)Cc1cccnc1)C(C)C`, 193 to 196 °C.
The same measure for `NC(=O)N(O)CCNC(=O)COc1cccc(Oc2ccccc2)c1`: 153 to 155 °C; for `Cc1oc(-c2ccco2)nc1COc1ccc(CCl)cn1`: 95 to 96 °C; for `CCCCCCCCCCCCCCOc1ccc(CN)cc1`: 62 to 64 °C.
The compound `CCOC(=O)CC(NCc1ccccc1)=C(C(C)=O)C(=O)OCC` yielded a melting point of 87 to 88 °C.
The compound `CCC1(CC)C(=O)N(C(C)(C)CO)CC(C)(C)N1OC(C)(C)C#N` gave a melting point of 58 to 66 °C.
`Cc1c(CNCC(C)(C)C)[nH]c2c(F)c(NC(=O)c3ccc(OC[C@@H]4CCCO4)cc3)ccc12` displayed a melting point of 159 to 160 °C.
The same measure for `CCN(CC)c1ccc(-c2cc(-c3ccc(C(=O)O)cc3)ccc2OCCCO)cc1C`: 208 °C; for `Cc1c(NC(=O)c2ccc(OC[C@@H]3CCCO3)cc2F)ccc2cc(CNCC(C)C)cnc12`: 133 to 134 °C.
For the compound `COC(=O)/C(=C/c1ccc(OC)c(OC2CCCC2)c1)CC(=O)O`, the melting point lay in the range of 119 to 121 °C.
With `CCOP(=O)(CN(Cc1ccncc1)C(=O)Cc1cc(C(C)(C)C)c(O)c(C(C)(C)C)c1)OCC`, the melting point was in the range of 160 to 162 °C.
For the compound `CSc1cc(C)nc(SC)c1NC(=O)CCCSc1nc2ccccc2s1`, the melting point lay within 131 to 133 °C.
Take `CCC(=O)N(C)c1cccc(-c2ccnc3c(C(=O)c4ccco4)cnn23)c1`: the melting point was 153 to 155 °C.
As for `CCCCc1nc(Cl)c(C(=O)O)n1Cc1ccc2oc(-c3ccccc3-c3nnn[nH]3)c(Br)c2c1`, the melting point lay in the range of 183 to 185 °C.
For `CC(CN1CC(=O)N(CN2CCOCC2)C(=O)C1)N1CC(=O)NC(=O)C1` (centres undefined) the value was 162 to 165 °C; for `COc1cccc(NC(=O)c2ccc(C(=O)N3CCCc4ccccc43)cc2)c1`, 154 to 155 °C.
